# Laboratory results reported in patent US20100124538A1, “TOPICAL APPLICATION OF FLUOCINOLONE ACETONIDE FOR DEPIGMENTATION OF THE SKIN” (GALDERMA RESEARCH & DEVELOPMENT, priority 2007, published 2010).
# What was measured:
# [1] = system: melasma; settings: cited from earlier work
# [2] = system: tail of SKH:HR2 mice; test: Clinical pigmentation score on the tail of SKH:HR2 mice after topical application; type: in vivo; settings: for depigmenting activity (clinical pigmentation score): 4 weeks
# Description: (§1) The depigmenting activity of fluocinolone acetonide and of hydrocortisone was evaluated on the tail of female SKH:HR2 mice that were 6 weeks old at the beginning of the study. The products were applied topically (20 μl of product to the tail), 5 days a week for 4 weeks. Each group contains 5 animals:
# Clinical observations: once a week the pigmentation is scored on a scale ranging from 0 (base pigmentation) to −4 (total depigmentation).
# The depigmenting activities of three corticosteroids, fluocinolone acetonide, desonide and β-methasone valerate, were evaluated on the tail of female SKH:HR2 mice that were 8 weeks old at the beginning of the study. The products were applied topically (20 μl of product to the tail), 5 days a week for 5 weeks. Each group contains 6 animals.
# Clinical observations: once a week, the pigmentation is scored on a scale ranging from 0 (base pigmentation) to −4 (total depigmentation).
# The depigmenting activity of fluocinolone acetonide and of desonide was evaluated on the tail of female SKH:HR2 mice that were 8 weeks old at the beginning of the study. The products were applied topically (20 μl of product to the tail), 5 days a week for 4 weeks.
# [3] = system: tail of SKH:HR2 mice; test: Fontana-Masson-positive surface area in living epidermis of the tail (histology, image analysis); type: in vivo; settings: 4 weeks
# Description: as §1
# A tail skin sample is taken at the end of the study and fixed with formol in order to carry out a histological analysis.
# The epidermal surface area taken up by melanin is measured by image analysis on histological sections stained by the Fontana-Masson technique, which makes it possible to reveal the pigments. For each animal, the Fontana-Masson-positive surface area is measured by image analysis on five fields of interfollicular epidermis and weighted with respect to the length of corresponding epidermis in order to avoid any possible bias due to hyperplasia or atrophy of the epidermis. Since the horny layer is partially lost during the treatment of the samples, the measurement is carried out only in the living layers of the epidermis.
# [4] = system: melasma; settings: monotherapy; cited from earlier work
structure (smiles),measurement,setting,value
CCC(=O)O[C@]1(C(=O)CCl)[C@@H](C)C[C@H]2[C@@H]3CCC4=CC(=O)C=C[C@]4(C)[C@@]3(F)[C@@H](O)C[C@@]21C [clobetasol propionate],cases in which treatment had to be stopped due to local atrophy and telangiectasiae,"[1]; 0.05% topical, stopped after 4 weeks",30%
same,patients with lightening in whom the melasma reappeared at the same sites,[1]; 2 to 3 weeks after the treatment had been stopped,57%
CC1(C)O[C@@H]2C[C@H]3[C@@H]4C[C@H](F)C5=CC(=O)C=C[C@]5(C)[C@@]4(F)[C@@H](O)C[C@]3(C)[C@]2(C(=O)CO)O1 [fluocinolone acetonide],depigmenting activity (clinical pigmentation score),"[2]; Example 1, 0.0005% topical",remains substantial
same,depigmentation of the tail (clinical pigmentation score),"[2]; Example 1, 0.01% topical, 5 days a week, after 4 weeks, compared with hydrocortisone at same concentration",marked depigmentation
same,depigmentation observed (clinical pigmentation score),"[2]; Example 2, 0.01% topical, after 5 weeks",virtually total
same,depigmenting activity compared with other corticosteroids,"[2]; Example 2, equivalent concentration of 0.01%, 5 weeks",greater depigmenting activity than desonide and than β-methasone valerate
same,depigmenting activity (clinical pigmentation score),"[2]; Example 3, 0.005% topical",very significant depigmenting activity
same,depigmenting activity compared with desonide,"[2]; Example 3, equivalent concentration, throughout the study (4 weeks)",remains greater than that of desonide
same,decrease in the Fontana-Masson-positive surface area in the living layers of the tail epidermis,[3]; 0.0005% topical,72%
same,decrease in the Fontana-Masson-positive surface area in the living layers of the tail epidermis,[3]; 0.01% topical,85%
C[C@]12CCC(=O)C=C1CC[C@@H]1[C@@H]2[C@@H](O)C[C@@]2(C)[C@H]1CC[C@]2(O)C(=O)CO [hydrocortisone],depigmenting activity (clinical pigmentation score),"[2]; Example 1, 0.01% increased to 0.5% topical",only a very weak depigmenting activity
same,change of Fontana-Masson-positive surface area,[3]; up to the concentration of 0.5% topical,does not significantly modify
Oc1ccc(O)cc1 [hydroquinone],time necessary to obtain a significant result,[4],12 weeks
CC1=C(/C=C/C(C)=C/C=C/C(C)=C/C(=O)O)C(C)(C)CCC1 [tretinoin],time necessary to obtain a significant result,[4],40 weeks
